Test results as given in publication PMC6646405, “A quantitative, high-throughput method identifies protein–glycan interactions via mass spectrometry” (Communications Biology, 2019).

Biological target: T1, human neuraminidase 3 (NEU3) (Homo sapiens, UniProt Q9UQ49)
T1 construct: made in house
T1 sequence (Q9UQ49 1-428): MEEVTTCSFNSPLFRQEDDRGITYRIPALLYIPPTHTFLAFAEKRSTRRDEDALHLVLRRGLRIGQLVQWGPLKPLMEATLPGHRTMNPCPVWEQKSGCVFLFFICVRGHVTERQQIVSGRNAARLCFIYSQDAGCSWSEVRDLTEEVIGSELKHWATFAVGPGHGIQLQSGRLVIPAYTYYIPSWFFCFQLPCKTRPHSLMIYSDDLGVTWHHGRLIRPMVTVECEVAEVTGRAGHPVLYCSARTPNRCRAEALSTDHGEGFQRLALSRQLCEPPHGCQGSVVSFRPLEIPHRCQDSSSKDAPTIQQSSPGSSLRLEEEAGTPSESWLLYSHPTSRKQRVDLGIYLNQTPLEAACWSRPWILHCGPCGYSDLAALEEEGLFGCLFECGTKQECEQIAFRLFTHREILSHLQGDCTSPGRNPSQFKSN
Experiment: Time-resolved CUPRA enzyme kinetics, NEU3
Type: biochemical
Procedure: To apply CUPRA in this capacity, two or more substrates of interest are introduced, as their corresponding OS^mod, to a solution containing the desired CAZyme. Changes in substrate concentrations, as well as those of the corresponding enzyme products, are determined from the relative abundances of OS^mod-bound ^UniPproxy measured by time-resolved ESI-MS. Because of the manner in which the substrate and product concentrations are measured, the assay is insensitive to differences in their ESI-MS response factors and, consequently, independent of the nature of the chemical modification catalyzed by the enzyme. As a result, time-resolved CUPRA eliminates the need for calibration curves or internal standards, which are generally required with ESI-MS-based enzyme kinetics assays.
Two glycosyl hydrolases, human neuraminidase 2 (NEU2) and 3 (NEU3), which preferentially cleave α2-3-linked Neu5Ac residues, were used to illustrate the ease with which time-resolved CUPRA can establish substrate specificities. We incubated libraries of the Neu5Ac-containing OS^mod with NEU2 (Fig. 2d) or NEU3 (Fig. 2e) and monitored their conversion to the corresponding desialylated OS^mod products at pH 7 and 25 °C. […] All OS^mod containing terminal α2-3-linked Neu5Ac were substrates of NEU3, with initial rates that are 10–50% that of HMO03. […]

CC(=O)N[C@H]1[C@H](O[C@@H]2[C@H](O[C@]3(C(=O)O)C[C@H](O)[C@@H](NC(C)=O)[C@H]([C@H](O)[C@@H](CO)O[C@]4(C(=O)O)C[C@H](O)[C@@H](NC(C)=O)[C@H]([C@H](O)[C@H](O)CO)O4)O3)[C@@H](O)[C@H](O[C@H]3[C@H](O)[C@@H](O)[C@H](N(CCOCCOCCNC(=O)[C@H](Cc4ccccc4)NC(=O)[C@H](Cc4ccccc4)NC(=O)CCCC(=O)NCCc4ccc(S(N)(=O)=O)cc4)C(C)=O)O[C@@H]3CO)O[C@@H]2CO)O[C@H](CO)[C@H](O)[C@@H]1O [GA10, GalNAcβ1-4(Neu5Acα2-8 Neu5Acα2-3)Galβ1-4Glc-CL]
substrate specificity of NEU3 (pH 7, 25 °C): substrates for NEU3 | Relative activity NEU3 (time-resolved CUPRA, 200 mM aqueous ammonium acetate pH 7, 25 °C, relative to HMO03): 0.292
